Patent publication US20230150951A1, “2,5- OR 2,6-DISUBSTITUTED HYDROQUINONE DERIVATIVES WITH AT LEAST ONE CARBOXY, SULFO OR AMIDO GROUP USEFUL AS MEDICAMENTS” (OM PHARMA SA, priority 2020, published 2023)

Tests used:
[1] = test system: bleomycin induced pulmonary fibrosis; test: Bleomycin induced pulmonary fibrosis, 21 days; assay type: in vivo, mice; conditions: day 21; pirfenidone 100 mg/kg, IVc-059a 15 mg/kg
Description: A total of 40 male Balb/c mice aged 8-10 weeks were used for the study.
Mice were anesthetized using an IP injection of xylazine and ketamine. Once an appropriate plane of anaesthesia was achieved, animals had 1.0 U/kg bleomycin sulphate instilled via intratracheal route. The total volume of liquid was 50 μL.
Dosing of IV and positive control (pirfenidone) started 24 hours after bleomycin instillation.
Drug solution was formulated immediately prior to dosing. For a dose of 15 mg/kg (enough for 12, 30 g mice) 4.5 mg of compound was weighed out. 75 μl (5%) DMSO added and mixed until drug is in solution. 150 μl (10%) solutol added and vortexed gently, 150 μl (10%) PEG400 added and vortexed gently. 1000 μl PBS (pH7) was added and matrix was measured to ensure pH 7.0 was maintained. Remaining PBS (to a total of 1500 μl) was added. Compound remained in solution. […]
Ashcroft score: Lungs from each animal were FFPE, sectioned and stained with H&E according to an in-house protocol. […] Each lung was scored using the Ashcroft grading system to measure degree of inflammation/fibrosis as per Hubner et al., 2008. […]
An entire lung from each animal was formalin fixed and stored in 70% ethanol. […] Percent area covered by trichrome staining was quantified using Qupath and ImageJ software.

Pan02 tumor cells = test: Subcutaneous murine pancreatic cancer syngenic model (Pan02); assay type: in vivo, C57BL/6 mice; parameters: Mean % inhibition of tumor volume Pan02 model: concentration or dose not given beside the values
Description: The objective of this study was to evaluate preclinically the in vivo therapeutic efficacy study of compounds according to the present invention for the treatment of subcutaneously murine pancreatic cancer syngenic model (Pan02) in female C57BL/6 mice and kidney cancer syngenic model (Renca) in female BALB/c mice.
Cell Culture: the Pan02 tumor cells were maintained in vitro with RPMI 1640 medium supplemented with 10% fetal bovine serum at 37° C. in an atmosphere of 5% CO2 in air. The cells in exponential growth phase were harvested and quantitated by cell counter before tumor inoculation.
Tumor Inoculation for Pan02 model: each mouse was inoculated subcutaneously in the right front flank region with Pan02 tumor cells (3×10^6) in 0.1 mL of PBS for tumor development.
Randomization: The randomization was started when the mean tumor size reaches approximately 100 (80-110) mm^3. For both models, 48 mice were enrolled in the study. All animals were randomly allocated to 6 study groups. Randomization were performed based on “Matched distribution” method using the multi-task method (StudyDirector™ software, version 3.1.399.19). The date of randomization was denoted as day 0.
Observation and Data Collection: After tumor cells inoculation, the animals were checked daily for morbidity and mortality. During routine monitoring, the animals were checked for any effects of tumor growth and treatments on behavior such as mobility, food and water consumption, body weight gain/loss (body weights were measured twice per week after randomization), eye/hair matting and any other abnormalities. Mortality and observed clinical signs were recorded for individual animals in detail.
Tumor volumes were measured twice per week after randomization in two dimensions using a caliper, and the volume were expressed in mm3 using the formula: “V=(L×W×W)/2, where V is tumor volume, L is tumor length (the longest tumor dimension) and W is tumor width (the longest tumor dimension perpendicular to L). Tumor weight were measured at the end of study. Dosing as well as tumor and body weight measurements were conducted in a Laminar Flow Cabinet.
Statistical Analysis: To compare tumor volumes of different groups at a pre-specified day, Bartlett's test was firstly used to check the assumption of homogeneity of variance across all groups. When the p-value of Bartlett's test is >0.05, One-way ANOVA were used to test overall equality of means across all groups.
If the p-value of the One-way ANOVA is <0.05, post hoc testing by running Tukey's HSD (honest significant difference) tests for all pairwise comparisons, and Dunnett's tests for comparing each treatment group with the vehicle group were performed. When the p-value of Bartlett's test is <0.05, Kruskal-Wallis test were used to test overall equality of medians among all groups. If the p-value the Kruskal-Wallis test is <0.05, post hoc testing by running Conover's non-parametric test for all pairwise comparisons or for comparing each treatment group with the vehicle group were performed, both with single-step p-value adjustment. All statistical analyses were done in R-a language and environment for statistical computing and graphics (version 3.3.1). All tests are two-sided unless otherwise specified, and p-values of <0.05 are regarded as statistically significant.

[2] = day 13, 15 mg/kg, 5 μL/g, I.V., QD*5 for 2 weeks

## O=C(O)c1cc(O)cc(CS(=O)(=O)Cc2cc(O)cc(C(=O)O)c2O)c1O [IVc-059a, 3-((2,5-Dihydroxy-3-carboxyphenyl)methylsulfonylmethyl)-2,5-dihydroxybenzoic acid]
[1]
  Onset of fibrosis in mouse lung (Ashcroft score): reduced the onset of fibrosis in mouse lung
Pan02 tumor cells; 15 mg/kg I.V.
  Tumor growth (in words): significantly suppressed tumor growth
Pan02 tumor cells; 15 mg/kg I.V., P<0.05
  TGI value: 20.98%
Pan02 tumor cells; Day 0
  Mean % inhibition of tumor volume Pan02 model: −0.11%
Pan02 tumor cells; Day 3
  Mean % inhibition of tumor volume Pan02 model: 19.86%
Pan02 tumor cells; Day 6
  Mean % inhibition of tumor volume Pan02 model: 18.64%
Pan02 tumor cells; Day 9
  Mean % inhibition of tumor volume Pan02 model: 18.49%
Pan02 tumor cells; Day 13
  Mean % inhibition of tumor volume Pan02 model: 20.98%
Pan02 tumor cells; [2]
  TGI (%): 20.98%
  Tumor volume ± SEM (mm^3): 148.49 ± 7.05 (8) mm^3
